# pEC50, pIC50: −log10 of the molar value.
# Tests used:
# Hsp90α = molecular target: T1, Hsp90α (Homo sapiens, UniProt P07900); assay: Human Hsp90α fluorescence polarization competition assay with Example 37 tracer; details: displacement of 50 nM example 37 tracer, 125 nM Hsp90α, 1 h 30 min, 20° C.; read-out: Relative binding affinity values (IC50) obtained from FP measurements
# T1 construct: purchased Stressgen Bioreagents SPP-776
# From the text: The aim of this study was to determine the binding ability of compounds of the invention to the N-terminal ATP binding site of Hsp90. For that purpose competition assays with fluorescently labeled Hsp90 binders were used (compounds of examples 37 and 41).
# Compounds of examples 37 and 41 are structurally based on 8-(6-Iodo-benzo[1,3]dioxol-5-ylsulfanyl)-9-(3-isopropylamino-propyl)-9H-purin-6-ylamine, a known binder of the N-terminal ATP binding site of Hsp90 which has the ability of inhibiting the Hsp90 function (cf. Chiosis G. et al. “Identification of Potent Water Soluble Purine-Scaffold Inhibitors of the Heat Shock Protein 90”, J. Med. Chem., 2006, vol. 49, no. 1, p. 381). Compounds 37 and 41 keep the essential structural features of the known binder (which means that said compounds are able to bind to the ATP binding site) and incorporate a fluorescent probe which allows the detection of the binding by fluorescence polarization.
# When the binders of examples 37 and 41 are used in the competition assay, in a first step said binders are allowed to interact with the N-terminal ATP binding site of Hsp90. Then the compounds of the invention are added and it is determined if they are able to bind to the N-terminal ATP binding site (which will imply that the binders of examples 37 and 41 have been replaced from the N-terminal ATP binding site). If after performing the assay, the binding between the tested compound of the invention and the Hsp90 is observed, this will be indicative that the compound of the invention has been bound to the ATP binding site of Hsp90 and, therefore, can inhibit the Hsp90.
# Once compounds of examples 37 and 41 were synthesized as reported above, they were dissolved at 238 μM and 1 mM in DMSO respectively (Sigma-Aldrich, cat. No. 154938). Hsp90α was purchased from Stressgen Bioreagents (cat. No. SPP-776; Victoria, Canada). The assay buffer contained 100 mM Tris·HCl, pH 7.4, 20 mM KCl, 6 mM MgCl2. Before each use 5 μg/mL bovine serum albumin (BSA, Pierce, Rockford (Ill.), cat No. 23209), 0.25 mM TCEP (Sigma, cat No. 64706) and 0.01% NP40 (Nonidet P40 Substitute, Fluka, cat No. 74385) were freshly added (cf. Howes et al., “A fluorescence polarization assay for inhibitors of Hsp90”, Analytical Biochemistry, 2006, vol. 350, p. 202-213; Kim et al., “Development of a fluorescence polarization assay for the molecular chaperone Hsp90”, J. Biomol. Screen., 2004, vol. 9 (5)).
# Fluorescence polarization measurements were performed on an Infinite F200 (Tecan, Austria). Measurements were taken in black 96-well microplates (Corning Costar No. 3650) in which both the excitation and the emission occurred from the top of the wells. In the Infinite F200, a xenon arc lamp provides excitation light that passes through a 485 nm (20-nm bandwidth) excitation filter and then a polarizer filter. A beam splitter filter directs the polarized excitation light into the well, and emitted fluorescence transmits back through the same beam-splitter filter, through a polarizer filter, and then through a 535 nm (25-nm bandwidth) emission filter for detection (Kim et al., supra). The read time per well was 20 μs, and the number of reads per well was 25.
# Compounds were assayed over a three-fold dilution series in a 96-well plate format to determine IC50 values. The serial dilution was performed in a separate 96-well plate (Thermowell 96 well PCR plate, Non-Treated Polypropylene, Corning Costar No. 6551) at 50 times final assay concentration in DMSO. (Howes et al, supra). 2 μl of compound was transferred to a black 96-well plate (Corning Costar No. 3650) and 98 μL of reaction solution (100 mM Tris·HCl, pH 7.4, 20 mM KCl, 6 mM MgCl2, 5 μg/mL bovine serum albumin (BSA), 0.25 mM TCEP, 0.01% NP40, 50 nM the compound of example 37, 125 nM Hsp90α) was added per well. The plate was allowed to equilibrate for 1 h 30 min on a slow moving shaker at 20° C. in the dark. […]
# HCT-116 = assay: Cell growth inhibition by AlamarBlue method, HCT-116; format: cell-based; details: Homo sapiens; HCT-116, 72 hours; read-out: Cell growth inhibition values (EC50) obtained with AlamarBlue method
# Method: (§1) The human colon cancer cell line HCT-116 and the human breast cell lines MCF-7 and SKBr3 were from the American Type Culture Collection (ATCC; CCL-247, HTB-22 and HTB-30, respectively).
# (§2) The HCT-116 and SKBr3 cell lines were maintained in DMEM GlutaMAX (Invitrogen) supplemented with 10% fetal calf serum and the MCF-7 cell line was maintained in RPMI1640 GlutaMAX (Invitrogen) containing 1 mM sodium pyruvate and 10% fetal calf serum. Cells were grown in a humidified incubator at 37° C. in 5% CO2
# (§3) Cells were plated in 96-well plates (Costar, 3596) at a density of 6000 cells/well in 50 μL medium 24 h before addition of the compounds. Compounds were then added in 8 concentrations, each in triplicate (dilution series of 1 to 3). To do so, a compound-dilution plate at 200× the screening concentrations was prepared in DMSO 100% (Sigma, 154938). Then, 1.7 μL of the 200× diluted compounds were transferred to a new plate and 170 μL of media were added and mixed with the pipette (plate at 2×). Columns 11 and 12 of this plate (controls) were filled with 1% DMSO in cell media (i.e. 1.7 μL DMSO and 170 μL cell media). Finally, 50 μL of this intermediate plate at 2× were transferred to the plate containing the seeded cells and slowly shaken manually. Cells were grown as described above. AlamarBlue viability assay (Biosource, Invitrogen, DAL1100) was performed 72 hours later following manufacturer's protocol. In brief, AlamarBlue diluted in media was added to cells to have a 5% solution (a 2× solution was prepared in media and 100 μL of this solution were transferred to each well, i.e. final volume of 200 μL). Cells were incubated at 37° C., 3 hours and at room temperature for an additional 30 min. Cells with no compound and, cells with no compound and lysed with triton X-100 (30 μL/well added 10 min before treatment with AlamarBlue) were used as controls (6 replicates of each). Fluorescence was monitored at 530 nm excitation and 590 nm emission wavelengths. Results were quantified using ELx800 Universal Microplate Reader (Bio-Tek Instruments, Inc.). EC50 were calculated as the dose of compound required to inhibit cell growth by 50%.
# SKBr3 = assay: Cell growth inhibition by AlamarBlue method, SKBr3; format: cell-based; details: Homo sapiens, SK-BR-3; SKBr3, 72 hours; read-out: Cell growth inhibition values (EC50) obtained with AlamarBlue method
# Method: as §1, §2, §3
pIC50 (Hsp90α),pEC50 (HCT-116),pEC50 (SKBr3),SMILES
3.70,–,–,"CCCCn1c(Sc2cc(OC)ccc2OC)nc(C(N)=O)c1N [Example 27, 5-amino-1-butyl-2-(2,5-dimethoxy-phenylsulfanyl)-1H-imidazole-4-carboxamide]"
5.51,–,–,"Cn1c(Sc2nc3cccc(Cl)c3s2)nc(C(N)=O)c1N [Example 51, 5-amino-2-(7-chloro-benzothiazol-2-ylsulfanyl)-1-methyl-1H-imidazole-4-carboxamide]"
3.70,–,–,"CC(=O)Nc1c(C(N)=O)nc(Sc2cc3c(cc2I)OCO3)n1CCCNC(C)C [Example 69, 5-acetylamino-2-(6-iodo-benzo[1,3]dioxol-5-ylsulfanyl)-1-(3-isopropylamino-propyl)-1H-imidazole-4-carboxamide]"
4.82,4.11,–,"Cn1c(Sc2cc3c(cc2Br)OCO3)nc(C(N)=O)c1N [Example 73, 5-amino-2-[(6-bromo-1,3-benzodioxol-5-yl)thio]-1-methyl-1H-imidazole-4-carboxamide]"
4.25,–,–,"CC(C)c1cc2c(cc1Sc1nc(C(N)=O)c(N)n1C)OCO2 [Example 75, 5-amino-2-[(6-isopropyl-1,3-benzodioxol-5-yl)thio]-1-methyl-1H-imidazole-4-carboxamide]"
4.90,4.04,–,"CCOc1cc2c(cc1Sc1nc(C(N)=O)c(N)n1C)OCO2 [Example 79, 5-amino-2-[(6-ethoxy-1,3-benzodioxol-5-yl)thio]-1-methyl-1H-imidazole-4-carboxamide]"
5.40,–,4.64,"CSc1cc2c(cc1Sc1nc(C(N)=O)c(N)n1C)OCO2 [Example 81, 5-amino-1-methyl-2-{[6-(methylthio)-1,3-benzodioxol-5-yl]thio}-1H-imidazole-4-carboxamide]"
5.10,4.58,–,"Cn1c(Sc2cc3c(cc2S(C)(=O)=O)OCO3)nc(C(N)=O)c1N [Example 83, 5-amino-1-methyl-2-{[6-(methylsulfonyl)-1,3-benzodioxol-5-yl]thio}-1H-imidazole-4-carboxamide]"
5.28,–,–,"Cn1c(Sc2cc3c(cc2I)OCO3)nc(C(N)=O)c1N [Example 85, 5-amino-2-[(6-iodo-1,3-benzodioxol-5-yl)thio]-1-methyl-1H-imidazole-4-carboxamide]"
5.47,4.04,–,"NC(=O)c1nc(Sc2cc3c(cc2Br)OCO3)n(CCCN2CCOCC2)c1N [Example 86, 5-amino-2-[(6-bromo-1,3-benzodioxol-5-yl)thio]-1-(3-morpholin-4-ylpropyl)-1H-imidazole-4-carboxamide]"
6.22,–,5.96,"CCN(CC)CCCn1c(Sc2cc3c(cc2I)OCO3)nc(C(N)=O)c1N [Example 88, 5-Amino-2-[(6-iodo-1,3-benzodioxol-5-yl)thio]-1-[3-(diethylamino)propyl]-1H-imidazole-4-carboxamide]"
–,4.68,–,"Cc1c(N)c(C(N)=O)nn1Cc1cc2c(cc1Br)OCO2 [Example 92, 4-amino-1-(6-bromo-benzol[1,3]dioxol-5-ylmethyl)-5-methyl-1H-pyrazole-3-carboxamide]"
–,4.52,–,"CC(=O)Nc1c(C(N)=O)nn(Cc2cc3c(cc2Br)OCO3)c1C [Example 93, 4-(acetylamino)-1-[(6-bromo-1,3-benzodioxol-5-yl)methyl]-5-methyl-1H-pyrazole-3-carboxamide]"
–,5.68,–,"CCC(=O)Nc1c(C(N)=O)nn(Cc2cc3c(cc2Br)OCO3)c1C [Example 94, 1-[(6-bromo-1,3-benzodioxol-5-yl)methyl]-5-methyl-4-(propionylamino)-1H-pyrazole-3-carboxamide]"
–,4.08,–,"Cc1c(NS(C)(=O)=O)c(C(N)=O)nn1Cc1cc2c(cc1Br)OCO2 [Example 95, 1-[(6-bromo-1,3-benzodioxol-5-yl)methyl]-5-methyl-4-[(methylsulfonyl)amino]-1H-pyrazole-3-carboxamide]"
5.84,5.92,–,"CCSc1cc2c(cc1Sc1nc(C(N)=O)c(N)n1CCCN(CC)CC)OCO2 [Example 100, 5-amino-2-{[6-(ethylthio)-1,3-benzodioxol-5-yl]thio}-1-[3-(diethylamino)propyl]-1H-imidazole-4-carboxamide]"
